Measured values taken from patent publication US11220482B2, “Aminopyridinemethanol compounds and their use” (UNIVERSITE AMIENS PICARDIE JULES VERNE, priority 2017, dated 2022).
Where two headings read alike, the source gives them in different places.

Experiments:
[1] = system: S. typhimurium TA1535
[2] = system: Salmonella strains; experiment: Bacterial reverse mutation assay (Ames test), overall conclusion; format: cell-based, S. typhimurium; conditions: all tested doses, absence or presence of the metabolizing mixture
Method: Five strains of S. typhimurium were used. […] An additional strain has been chosen to detect cross-linking mutagens, hydrazines and oxidative agents: TA102, which have an AT base pair at the primary reversion site. Salmonella tester strains were gifts from Prof. B. N. Ames (Berkeley, Calif., USA). They were stored at −80° C. and regularly checked for genetic markers.
Few crystals of the frozen working strains were taken with a sterile pipette, and seeded in 10 mL of nutrient broth (NB No 2, Oxoid). Strains were grown overnight at 37° C. with shaking in Nutrient Broth No. 2, with ampicillin (25 μg/mL) for TA1535, TA97a, TA98, and TA 100, or ampicillin (25 μg/mL) plus tetracyclin (2 μg/mL) for TA 102. At the end of the incubation period, 0.1 mL of each overnight culture was mixed to 0.1 mL S9 Mix or 0.1 mL phosphate-buffered saline (PBS, pH 7.4) in 5 mL plastic tubes and various volumes of the tested samples were added to the mixtures. Each experiment included triplicate plates of four tested doses. A solvent (DMSO, 10 μL) control was added to determine the spontaneous frequency of revertants (quadruple plates). Five positive controls were also included to ensure the performance of the tester strains and the S9 Mix. […] After hardening, the plates were incubated at 37° C. for 48 hours.
At the end of the incubation period, revertants were counted with a laser colony counter equipped with a bacterial enumeration program (Spiral System Instrument Inc., Bethesda, Md., USA).
The Dunnett test was performed to determine a significant difference between the mean number of induced revertants and the mean number of spontaneous revertants.

[3] = system: Plasmodium falciparum W2; experiment: Plasmodium falciparum susceptibility assay, first round (SYBR Green I); format: cell-based; conditions: W2, first round, 48-h incubation, strain resistant to CQ, sensitive to MQ, read-out: IC50 (nM) Plasmodium falciparum W2 (converted)
[4] = system: Plasmodium falciparum 3D7; experiment: as above; format: cell-based; conditions: 3D7, first round, 48-h incubation, strain susceptible to CQ, decreased susceptibility to MQ, read-out: IC50 (nM) Plasmodium falciparum 3D7 (converted)
[5] = system: S. typhimurium TA102
[6] = system: S. typhimurium TA100
[7] = system: S. typhimurium TA97a
[8] = system: CHO-K1 cells; experiment: In vitro micronucleus assay, short-term exposure
Method: All the assays were conducted in duplicate. The CHO-K1 cells, suspended in McCoy's 5A medium, were transferred into Labteck wells at a concentration of 100,000 cells/mL, and incubated for 24 hours at 37° C. in CO2 (5%).
When the test was performed without metabolic activation, the test substances were added into cell cultures at concentrations previously defined.
When the assay was performed in the presence of metabolic activation, S9 mix metabolizing mixture was added to cell cultures at a concentration of 10%. Then the test substances were added to the cell cultures at concentrations previously defined.
After 3 hours of incubation at 37° C. in CO2 (5%), the culture medium was removed, the cells were rinsed with phosphate buffered saline (PBS), and then returned to culture in McCoy's 5A medium containing […] of cytochalasin B. After a 21-hour incubation period at 37° C., cells were rinsed with phosphate buffered saline (PBS), fixed with methanol and stained with 10% Giemsa for 20 minutes.
(§1) The analysis of results was performed under a microscope at ×1000 magnification. The antiproliferative activity of test substances was estimated by counting the number of binucleated cells relative to the number of mononucleated cells on a total of 500 cells for each dose (250 cells counted per well). The proliferation index (Cytokinesis Blocked Proliferative Index CBPI) was calculated using the following formula:
(§2) The cytostasis index (CI %), i.e. the percentage of cell replication inhibition, was calculated using the following formula: CI %−100−{100×(CBPItest material−1)/(CBPIsolvent control−1)}
(§3) The rates of micronuclei were evaluated for the presence of independent nuclear core entities in 1000 binucleated cells per well, which corresponds to 2000 cells examined by test substance dose. Micronuclei were identified as small nuclei well differentiated from cell nucleus, stained in the same manner and having a diameter less than one third of that of the cell nucleus.
(§4) Micronuclei rates obtained for different doses of test substances were compared to the negative control by a χ2 test. The assay was considered positive if: • A dose-response relationship was obtained between the rate of micronuclei and the doses tested, • At least one of these doses induced a statistically significant increase (P<0.05) in the number of micronucleated cells as compared to the negative control.

[9] = system: S. typhimurium TA98; experiment: Bacterial reverse mutation assay (Ames test)
[10] = system: CHO-K1 cells; conditions: Chinese hamster, 24 h
Method: All the assays were conducted in duplicate. The CHO-K1 cells, suspended in Mac Coy's 5A medium, were transferred into Labteck wells at a concentration of 100,000 cells/mL, and incubated for 24 hours at 37° C. in CO2 (5%).
The test was performed without metabolic activation: the test substances were added into cell cultures at concentrations previously defined. […] After 24 hours of incubation at 37° C. in CO2 (5%), the culture medium was removed, the cells were rinsed with phosphate buffered saline (PBS), and then returned in culture medium containing […] of cytochalasine B. After a 24-hour incubation period at 37° C., cells were rinsed with phosphate buffered saline (PBS), fixed with methanol and stained with 10% Giemsa for 20 minutes.
as §1, §2, §3, §4

`COC[C@H](Cc1ccccc1)NC[C@@H](O)c1cc(-c2ccc(C(F)(F)F)cc2)nc(C(F)(F)F)c1` [Compound 1i, (S)-2-(((S)-1-Methoxy-3-phenylpropan-2-yl)amino)-1-(2-(trifluoromethyl)-6-(4-(trifluoromethyl)phenyl)pyridin-4-yl)ethanol] was tested, and the “Number of revertants by plate (Means ± SD), TA1535” value (“Number … (Means ± SD), TA1535” below) ([1]; with S9 mix, 0.4 μg/plate) was 23 ± 6^NS, the “Number … (Means ± SD), TA1535” value ([1]; with S9 mix, 0.6 μg/plate) was 29 ± 4^NS and the “Number … (Means ± SD), TA1535” value ([1]; with S9 mix, 0.8 μg/plate) was 27 ± 5^NS. The “Number … (Means ± SD), TA1535” value ([1]; with S9 mix, 1 μg/plate) was 29 ± 9^NS, the “Number … (Means ± SD), TA1535” value ([1]; without S9 mix, 0.4 μg/plate) was 22 ± 4^NS and the “Number … (Means ± SD), TA1535” value ([1]; without S9 mix, 0.6 μg/plate) was 29 ± 6^NS. The “Number … (Means ± SD), TA1535” value ([1]; without S9 mix, 0.8 μg/plate) was 28 ± 5^NS, the “Number … (Means ± SD), TA1535” value ([1]; without S9 mix, 1 μg/plate) was 20 ± 4^NS and the “mutagenic activity in Salmonella strains (revertant rates)” value [2] was “No significant increase in revertant rates”. For the same compound, the IC50 [3] was 28.8 ± 3.8 nM, the IC50 [4] was 28.3 ± 1.5 nM and the “Number of revertants by plate (Means ± SD), TA102” value (“Number … (Means ± SD), TA102” for short) ([5]; with S9 mix, 0.4 μg/plate) was 351 ± 6^NS. The “Number … (Means ± SD), TA102” value ([5]; with S9 mix, 0.6 μg/plate) was 355 ± 16^NS, the “Number … (Means ± SD), TA102” value ([5]; with S9 mix, 0.8 μg/plate) was 376 ± 10^NS and the “Number … (Means ± SD), TA102” value ([5]; with S9 mix, 1 μg/plate) was 362 ± 4^NS. For the same compound, the “Number … (Means ± SD), TA102” value ([5]; without S9 mix, 0.4 μg/plate) was 332 ± 19^NS, the “Number … (Means ± SD), TA102” value ([5]; without S9 mix, 0.6 μg/plate) was 293 ± 4^NS and the “Number … (Means ± SD), TA102” value ([5]; without S9 mix, 0.8 μg/plate) was 328 ± 14^NS. The “Number … (Means ± SD), TA102” value ([5]; without S9 mix, 1 μg/plate) was 347 ± 11^NS, the “Number of revertants by plate (Means ± SD), TA100” value (“Number … (Means ± SD), TA100” for short) ([6]; with S9 mix, 0.4 μg/plate) was 191 ± 11^NS and the “Number … (Means ± SD), TA100” value ([6]; with S9 mix, 0.6 μg/plate) was 173 ± 10^NS. The “Number … (Means ± SD), TA100” value ([6]; with S9 mix, 0.8 μg/plate) was 182 ± 10^NS, the “Number … (Means ± SD), TA100” value ([6]; with S9 mix, 1 μg/plate) was 174 ± 10^NS and the “Number … (Means ± SD), TA100” value ([6]; without S9 mix, 0.4 μg/plate) was 200 ± 7^NS. The “Number … (Means ± SD), TA100” value ([6]; without S9 mix, 0.6 μg/plate) was 199 ± 10^NS, the “Number … (Means ± SD), TA100” value ([6]; without S9 mix, 0.8 μg/plate) was 209 ± 17^NS and the “Number … (Means ± SD), TA100” value ([6]; without S9 mix, 1 μg/plate) was 205 ± 21^NS. For the same compound, the “Number of revertants by plate (Means ± SD), TA97a” value (“Number … (Means ± SD), TA97a” for short) ([7]; with S9 mix, 0.4 μg/plate) was 132 ± 11^NS, the “Number … (Means ± SD), TA97a” value ([7]; with S9 mix, 0.6 μg/plate) was 137 ± 2^NS and the “Number … (Means ± SD), TA97a” value ([7]; with S9 mix, 0.8 μg/plate) was 127 ± 9^NS. The “Number … (Means ± SD), TA97a” value ([7]; with S9 mix, 1 μg/plate) was 124 ± 4^NS, the “Number … (Means ± SD), TA97a” value ([7]; without S9 mix, 0.4 μg/plate) was 153 ± 5^NS and the “Number … (Means ± SD), TA97a” value ([7]; without S9 mix, 0.6 μg/plate) was 163 ± 4^NS. For the same compound, the “Number … (Means ± SD), TA97a” value ([7]; without S9 mix, 0.8 μg/plate) was 164 ± 5^NS, the “Number … (Means ± SD), TA97a” value ([7]; without S9 mix, 1 μg/plate) was 144 ± 11^NS and the “in vitro micronucleus assay result (clastogenic and/or aneugenic activities)” value [8] was “negative results”. For the same compound, the “Number of revertants by plate (Means ± SD), TA98” value (“Number … (Means ± SD), TA98” for short) ([9]; with S9 mix, 0.4 μg/plate) was 24 ± 2^NS, the “Number … (Means ± SD), TA98” value ([9]; with S9 mix, 0.6 μg/plate) was 18 ± 3^NS and the “Number … (Means ± SD), TA98” value ([9]; with S9 mix, 0.8 μg/plate) was 17 ± 1^NS. The “Number … (Means ± SD), TA98” value ([9]; with S9 mix, 1 μg/plate) was 20 ± 2^NS, the “Number … (Means ± SD), TA98” value ([9]; without S9 mix, 0.4 μg/plate) was 32 ± 3^NS and the “Number … (Means ± SD), TA98” value ([9]; without S9 mix, 0.6 μg/plate) was 33 ± 3^NS. For the same compound, the “Number … (Means ± SD), TA98” value ([9]; without S9 mix, 0.8 μg/plate) was 33 ± 3^NS, the “Number … (Means ± SD), TA98” value ([9]; without S9 mix, 1 μg/plate) was 34 ± 7^NS and the “BI (binucleated cells)” value ([10]; 5 μM) was 402. The “CBPI (Cytokinesis-Blocked Proliferative Index)” value ([10]; 5 μM) was 1.81, the “CI % (cytostasis index)” value ([10]; 5 μM) was 13% and the “MNC1 (micronucleated cell rate)” value ([10]; 5 μM) was 9 ‰. The “MNC2 (micronucleated cell rate)” value ([10]; 5 μM) was 11 ‰, the “MNC-M (mean of micronucleated cell rates)” value (“MNC-M” below) ([10]; 5 μM) was 10 ± 1.4 ‰ and the “MONO (mononucleated cells)” value ([10]; 5 μM) was 98. The “BI (binucleated cells)” value ([10]; 10 μM) was 308, the “CBPI (Cytokinesis-Blocked Proliferative Index)” value ([10]; 10 μM) was 1.62 and the “CI % (cytostasis index)” value ([10]; 10 μM) was 34%. For the same compound, the “MNC1 (micronucleated cell rate)” value ([10]; 10 μM) was 10 ‰, the “MNC2 (micronucleated cell rate)” value ([10]; 10 μM) was 12 ‰ and the “MNC-M” value ([10]; 10 μM) was 11 ± 1.4 ‰. For the same compound, the “MONO (mononucleated cells)” value ([10]; 10 μM) was 192, the “BI (binucleated cells)” value ([10]; 50 μM) was 214 and the “CBPI (Cytokinesis-Blocked Proliferative Index)” value ([10]; 50 μM) was 1.42. The “CI % (cytostasis index)” value ([10]; 50 μM) was 57%, the “MNC1 (micronucleated cell rate)” value ([10]; 50 μM) was 11 ‰ and the “MNC2 (micronucleated cell rate)” value ([10]; 50 μM) was 9 ‰. The “MNC-M” value ([10]; 50 μM) was 10 ± 1.4 ‰ and the “MONO (mononucleated cells)” value ([10]; 50 μM) was 286.
